Measured values: publication PMC8290231 (Cancer Medicine, 2021)

Legend:
[1] = test system: A549; experiment: CCK-8 cell proliferation assay; format: cell-based; settings: Homo sapiens, A549, 72 h, negative control; CCK-8, 72 h; read-out: antiproliferative IC50, A549
[2] = test system: FGFR1 signal pathway in Ba/F3‐FGFR1‐V561M; experiment: Western blot of FGFR1 signal pathway; format: cell-based; settings: 300 nM
Protocol: (§1) Cells were treated with different concentrations of compound or DMSO for indicated time. Then, cells were lysed with 1 × SDS sample lysis buffer (recommended by CST). […] After blocking with 5% BSA in TBST solution (0.5% Tween‐20) at room temperature for 4 hrs, the membranes were incubated with the corresponding primary antibody (1:2000–1:200) at 4℃ overnight. After washing with TBST for 3–5 times, the HRP‐conjugated secondary antibodies were incubated for 2 hrs. The protein signals were detected with Amersham Imager 600 system (GE, Boston, MA, USA) using an ECL western blotting detection kit (Thermo Fisher Scientific, Waltham, MA, USA).
(§2) Cell lysates were separated by sodium dodecyl sulfate‐polyacrylamide gel electrophoresis (SDS‐PAGE) and analyzed by western blot for phosphorylated FGFR1, FGFR1, phosphorylated FRS2, FRS2, phosphorylated AKT (Ser473), AKT, phosphorylated Erk, and Erk. GAPDH was used as a control

[3] = target: T1, FGFR1 (Homo sapiens, UniProt P11362); experiment: FRET-based Z′-Lyte kinase assay; format: biochemical
T1 construct: purchased Invitrogen (Waltham, MA, USA)
T1 sequence (P11362 22-822): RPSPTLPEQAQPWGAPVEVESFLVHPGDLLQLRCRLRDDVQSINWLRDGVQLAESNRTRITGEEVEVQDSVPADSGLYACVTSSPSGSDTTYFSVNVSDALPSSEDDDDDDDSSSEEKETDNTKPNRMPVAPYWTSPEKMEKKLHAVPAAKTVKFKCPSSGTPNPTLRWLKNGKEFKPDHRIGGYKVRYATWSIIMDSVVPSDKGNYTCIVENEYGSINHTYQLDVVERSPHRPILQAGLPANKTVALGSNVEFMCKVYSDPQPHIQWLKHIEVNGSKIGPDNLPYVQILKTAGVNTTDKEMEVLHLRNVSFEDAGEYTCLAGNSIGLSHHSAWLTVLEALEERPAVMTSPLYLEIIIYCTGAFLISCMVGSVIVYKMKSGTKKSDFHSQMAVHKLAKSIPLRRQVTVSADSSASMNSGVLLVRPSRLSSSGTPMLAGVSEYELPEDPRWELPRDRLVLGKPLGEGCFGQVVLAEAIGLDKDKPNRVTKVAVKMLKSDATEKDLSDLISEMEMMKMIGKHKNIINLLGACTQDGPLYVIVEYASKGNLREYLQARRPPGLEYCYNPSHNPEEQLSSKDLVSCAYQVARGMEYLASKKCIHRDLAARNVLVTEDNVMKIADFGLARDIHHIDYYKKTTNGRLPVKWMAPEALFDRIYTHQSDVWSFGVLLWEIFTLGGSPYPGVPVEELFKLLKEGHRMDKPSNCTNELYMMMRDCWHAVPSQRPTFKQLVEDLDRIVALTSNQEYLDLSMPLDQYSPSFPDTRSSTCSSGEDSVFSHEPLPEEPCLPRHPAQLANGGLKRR
Protocol: FGFR1 and the Z′‐Lyte kinase assay kit were purchased from Invitrogen (Waltham, MA, USA) and the assays were performed according to the manufacturer's instructions as described previously.[27]

[4] = target: T2, FGFR2 (Homo sapiens, UniProt P21802); experiment: FRET-based Z′-Lyte kinase assay; format: biochemical
T2 sequence (P21802 22-821): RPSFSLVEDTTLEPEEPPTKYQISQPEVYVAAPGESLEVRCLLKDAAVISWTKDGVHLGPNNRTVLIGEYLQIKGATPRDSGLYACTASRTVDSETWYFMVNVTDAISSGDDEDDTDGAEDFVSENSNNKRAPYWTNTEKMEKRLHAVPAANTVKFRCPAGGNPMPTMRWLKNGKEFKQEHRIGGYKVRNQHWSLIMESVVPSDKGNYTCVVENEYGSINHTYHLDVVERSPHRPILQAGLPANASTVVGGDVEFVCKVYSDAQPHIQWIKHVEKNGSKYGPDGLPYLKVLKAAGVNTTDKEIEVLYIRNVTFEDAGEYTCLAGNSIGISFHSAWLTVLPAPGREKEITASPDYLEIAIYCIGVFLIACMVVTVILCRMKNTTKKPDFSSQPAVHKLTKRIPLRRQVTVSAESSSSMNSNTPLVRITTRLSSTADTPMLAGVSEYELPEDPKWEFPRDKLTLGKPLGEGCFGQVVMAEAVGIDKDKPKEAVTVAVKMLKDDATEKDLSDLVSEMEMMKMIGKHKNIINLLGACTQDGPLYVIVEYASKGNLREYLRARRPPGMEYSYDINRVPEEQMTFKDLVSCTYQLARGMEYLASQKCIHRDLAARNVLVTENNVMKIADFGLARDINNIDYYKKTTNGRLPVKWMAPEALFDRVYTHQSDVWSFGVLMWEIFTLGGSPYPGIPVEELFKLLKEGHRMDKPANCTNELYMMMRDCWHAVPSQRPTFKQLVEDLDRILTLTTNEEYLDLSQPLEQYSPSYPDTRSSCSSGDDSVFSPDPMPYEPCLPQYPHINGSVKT

[5] = target: FGFR4 (Homo sapiens, UniProt P22455); experiment: FRET-based Z′-Lyte kinase assay; format: biochemical
Chain of FGFR4 (P22455 22-802): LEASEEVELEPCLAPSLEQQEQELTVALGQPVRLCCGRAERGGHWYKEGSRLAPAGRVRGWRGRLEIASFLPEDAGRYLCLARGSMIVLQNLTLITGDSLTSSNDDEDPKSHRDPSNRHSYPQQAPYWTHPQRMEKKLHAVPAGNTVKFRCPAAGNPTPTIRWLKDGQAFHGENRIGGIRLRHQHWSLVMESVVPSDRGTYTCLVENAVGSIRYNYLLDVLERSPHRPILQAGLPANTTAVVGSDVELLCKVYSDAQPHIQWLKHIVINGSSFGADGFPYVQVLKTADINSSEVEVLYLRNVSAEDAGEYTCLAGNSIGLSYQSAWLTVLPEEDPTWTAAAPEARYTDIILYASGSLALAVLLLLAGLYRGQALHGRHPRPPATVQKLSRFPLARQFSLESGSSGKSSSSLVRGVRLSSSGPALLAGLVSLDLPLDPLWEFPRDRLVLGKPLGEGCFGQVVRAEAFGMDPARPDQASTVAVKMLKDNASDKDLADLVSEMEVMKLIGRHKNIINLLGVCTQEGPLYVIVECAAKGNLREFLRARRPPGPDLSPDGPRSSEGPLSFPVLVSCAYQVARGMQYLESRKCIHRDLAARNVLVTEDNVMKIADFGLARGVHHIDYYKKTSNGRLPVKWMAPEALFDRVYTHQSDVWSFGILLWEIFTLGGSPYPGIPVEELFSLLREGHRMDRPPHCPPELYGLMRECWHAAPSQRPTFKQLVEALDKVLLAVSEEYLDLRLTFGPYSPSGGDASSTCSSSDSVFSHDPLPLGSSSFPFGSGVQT

[6] = target: T2, FGFR2; experiment: KINOMEscan binding affinity assay
[7] = target: FGFR3 (Homo sapiens, UniProt P22607); experiment: KINOMEscan binding affinity assay
Chain of FGFR3 (P22607 23-806): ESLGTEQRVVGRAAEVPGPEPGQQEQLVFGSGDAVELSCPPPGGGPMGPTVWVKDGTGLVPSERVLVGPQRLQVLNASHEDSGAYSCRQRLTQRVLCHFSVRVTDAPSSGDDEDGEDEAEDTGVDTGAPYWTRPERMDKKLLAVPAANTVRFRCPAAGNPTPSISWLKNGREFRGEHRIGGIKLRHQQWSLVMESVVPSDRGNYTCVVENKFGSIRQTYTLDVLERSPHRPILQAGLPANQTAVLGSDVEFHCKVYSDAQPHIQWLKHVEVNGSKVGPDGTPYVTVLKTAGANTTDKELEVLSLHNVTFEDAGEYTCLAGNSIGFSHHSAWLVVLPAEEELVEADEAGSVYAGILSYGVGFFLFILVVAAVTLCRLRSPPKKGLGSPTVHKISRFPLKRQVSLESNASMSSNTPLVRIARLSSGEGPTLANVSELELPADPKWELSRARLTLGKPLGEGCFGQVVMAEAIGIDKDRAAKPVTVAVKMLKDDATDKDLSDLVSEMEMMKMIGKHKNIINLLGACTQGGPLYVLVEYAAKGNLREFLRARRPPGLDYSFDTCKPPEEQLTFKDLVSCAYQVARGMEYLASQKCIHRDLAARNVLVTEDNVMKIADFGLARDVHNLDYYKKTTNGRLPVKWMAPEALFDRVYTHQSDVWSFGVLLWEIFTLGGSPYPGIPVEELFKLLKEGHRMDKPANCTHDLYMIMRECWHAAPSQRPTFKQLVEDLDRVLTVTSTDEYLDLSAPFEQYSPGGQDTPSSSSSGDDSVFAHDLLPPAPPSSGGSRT

[8] = target: T3, FGFR3‐G697C (Homo sapiens, UniProt P22607, G697C); experiment: KINOMEscan binding affinity assay
T3 construct: purchased KINOMEscan™ (commercial assay)
T3 sequence (P22607 23-806 G697C): as the sequence (P22607 23-806) above, with G675C counted along it

[9] = target: T4, FGFR3‐K650E (Homo sapiens, UniProt P22607, K650E); experiment: KINOMEscan binding affinity assay
T4 construct: purchased KINOMEscan™ (commercial assay)
T4 sequence (P22607 23-806 K650E): as the sequence (P22607 23-806) above, with K628E counted along it

[10] = target: T5, FGFR3‐V555 M (Homo sapiens, UniProt P22607, V555M); experiment: KINOMEscan binding affinity assay
T5 construct: purchased KINOMEscan™ (commercial assay)
T5 sequence (P22607 23-806 V555M): as the sequence (P22607 23-806) above, with V533M counted along it

[11] = test system: A204; experiment: CCK-8 cell proliferation assay; format: cell-based; settings: Homo sapiens, A204; FGFR1 amplification; CCK-8, 72 h; read-out: antiproliferative IC50, A204
[12] = test system: FGFR1–FGFR3 cell lines; experiment: CCK-8 proliferation, cancer cells harboring FGFR aberrations (summary range); format: cell-based; settings: range over cell lines of Table 2; read-out: antiproliferative IC50 values, FGFR1–FGFR3 cell lines
Protocol: (§3) Cells were seeded in 96‐well plate in complete medium (1000–6000 cells/well) and cultured for overnight. Then the cells were exposed to gradient concentrations (0.0005–10 μM) of compounds. Cell proliferation was analyzed by Cell Counting Kit 8 (CK04, Dojindo Laboratories, Japan) after co‐incubation for a further 72 h. IC50 values were calculated by fitting of concentration–response curves using GraphPad Prism 8.01 software. Each assay was repeated at least three times.
The expression and activation levels of FGFR1–4 in these cells were determined via western blot experiments (Figure S1).

[13] = test system: Ba/F3 stable cells (FGFR1‐V561F/M and other mutant); experiment: CCK-8 proliferation, Ba/F3 stable cells with FGFR1 and mutants (summary); format: cell-based; settings: Mus musculus, BaF3; range over Ba/F3 stable cells
Protocol: The Ba/F3 cell lines stably expressing FGFR1, FGFR1‐V561M, FGFR1‐V561F, FGFR1‐K656N, and FGFR1‐K656E were self‐established through electroporation pCDNA3.1‐TEL plasmids using the Amaxa Cell Line Nucleofector Kit V (Lonza, Cologne, Germany). Stable cell lines were selected by G418 (Merck, USA) and then withdrawal of IL‐3 (R&D). […] Parental Ba/F3 cells were maintained in RPMI 1640 supplemented with 10% FBS, 100 U/ml of penicillin, […] of streptomycin, and 10 ng/ml of IL‐3, while all Ba/F3 stable cell lines were cultured in the same medium without IL‐3.
as §3
There is, however, no commercially available FGFR1 mutant kinase to validate this. Therefore, we constructed Ba/F3 model cells stably expressing FGFR1‐WT, K656E, K656N, V561M, and V561F mutations.

[14] = test system: Ba/F3‐FGFR1; experiment: Cell cycle analysis by flow cytometry (propidium iodide); format: cell-based; settings: Ba/F3‐FGFR1, 100 nM, 24 h
Protocol: About 6 × 10^5 cells were re‐suspended in 150 μl of BD Cytofix/Cytoperm buffer solution I for 10 min at room temperature. The cell suspensions were added with BD Cytofix/Cytoperm buffer solution II and incubated with another 10 min at room temperature, and then incubated with 200 μl of propidium iodide buffer (0.1 mg/ml) in the dark for 10 min at 4℃. Assays were performed with a Guava easyCyte flow cytometer (Merck, USA).

[15] = test system: FGFR1 signal pathway in A204; experiment: Western blot of FGFR1 signal pathway; format: cell-based
Protocol: as §1, §2

[16] = test system: FGFR1 signal pathway in A549; experiment: Western blot of FGFR1 signal pathway; format: cell-based
Protocol: as §1, §2

[17] = test system: FGFR1 signal pathway in Ba/F3‐FGFR1; experiment: Western blot of FGFR1 signal pathway; format: cell-based; settings: Ba/F3‐FGFR1, 4 h, 3.7 nM to 300 nM
Protocol: as §1, §2

[18] = test system: FGFR1 signal pathway in H1581; experiment: Western blot of FGFR1 signal pathway; format: cell-based
Protocol: as §1, §2

[19] = test system: pAKT in SNU‐16; experiment: Western blot of pAKT; format: cell-based; settings: SNU‐16, FGFR2 overexpressed, 3.7 to 300 nM
Protocol: as §1

Structure (SMILES): CCN1CCN(c2ccc(Nc3cc(N(C)C(=O)Nc4c(Cl)c(OC)cc(OC)c4Cl)ncn3)cc2)CC1 [BGJ398]
- IC50 [1]: 8730 ± 1930 nM
- activation of FGFR1 and its signal pathway [2]: no effects

Structure (SMILES): Cc1ccc(C(=O)Nc2ccc(CN3CCN(C)CC3)c(C(F)(F)F)c2)cc1C#Cc1cnc2[nH]ncc2c1 [GZD824]
- IC50 [3]: 4.14 ± 0.96 nM
- EC50 ([3]; Figure 1B curve fit): 4.82 nM
- IC50 [4]: 2.77 ± 0.082 nM
- EC50 ([4]; Figure 1B curve fit): 2.72 nM
- IC50 [5]: 30.3 ± 21.7 nM
- Kd [6]: 15.5 ± 3.5 nM
- Kd [7]: 17 ± 1.4 nM
- Kd [8]: 39.5 ± 7.8 nM
- Kd [9]: 11 nM
- Kd [10]: 19.5 ± 4.9 nM
- IC50 [11]: 24.4 ± 6.2 nM
- IC50 [12]: 4 to 91 nM
- IC50 [13]: 8.1 to 55 nM
- G0/G1 phase [14]: 70.88%
- dose with obvious inhibition of pFRS2 and pERK ([15]; A204): ≥ 3.7 nM
- total level of FGFR1 protein expression ([15]; A204): no obvious effect
- effect on pAKT ([15]; A204, even at 300 nM): no effect
- total level of FGFR1 protein expression ([16]; A549): no obvious effect
- effects on FGFR1 downstream signal pathway ([16]; A549, negative control): very weak
- FGFR1 phosphorylation, downstream FRS2 and ERK1/2 [17]: dose‐dependent inhibition
- dose with obvious inhibition of pFRS2 and pERK ([18]; H1581): ≥ 3.7 nM
- total level of FGFR1 protein expression ([18]; H1581): no obvious effect
- FGFR1 phosphorylation, downstream FRS2 and ERK1/2 ([18]; H1581, 4 h, 3.7 nM to 300 nM): dose‐dependent inhibition
- effect on pAKT ([18]; H1581, even at 300 nM): no effect
- effect on pAKT [19]: strongly inhibit
